Legend:
[1] = system: TK-10; experiment: NCI-60 screening (SRB); assay type: cell-based, human; details: five-dose
[2] = system: NCI-H322M; experiment: NCI-60 screening (SRB); assay type: cell-based, human; details: five-dose
[3] = system: SK-MEL-5; experiment: NCI-60 screening (SRB); assay type: cell-based, human; details: SK-MEL-5
[4] = system: MOLT-4; experiment: NCI-60 screening (SRB); assay type: cell-based, human; details: five-dose
[5] = system: MALME-3M; experiment: NCI-60 screening (SRB); assay type: cell-based, human
[6] = system: HOP-62; experiment: NCI-60 screening (SRB); assay type: cell-based, human; details: five-dose
[7] = system: 786-0; experiment: NCI-60 screening (SRB); assay type: cell-based, human; details: five-dose
[8] = system: CAKI-1; experiment: NCI-60 screening (SRB); assay type: cell-based, human; details: CAKI-1, five-dose
[9] = system: MDA-MB-435; experiment: NCI-60 screening (SRB); assay type: cell-based, human; details: five-dose
[10] = system: NCI-H23; experiment: NCI-60 screening (SRB); assay type: cell-based, human; details: five-dose
[11] = system: OVCAR-8; experiment: NCI-60 screening (SRB); assay type: cell-based, human; details: five-dose
[12] = system: HCC-2998; experiment: NCI-60 screening (SRB); assay type: cell-based, human; details: five-dose
[13] = system: OVCAR-3; experiment: NCI-60 screening (SRB); assay type: cell-based, human; details: five-dose
[14] = system: HCT-116; experiment: NCI-60 screening (SRB); assay type: cell-based, human; details: five-dose
[15] = system: DU-145; experiment: NCI-60 screening (SRB); assay type: cell-based, human; details: five-dose
[16] = system: LOX IMVI; experiment: NCI-60 screening (SRB); assay type: cell-based, human
[17] = system: UACC-257; experiment: NCI-60 screening (SRB); assay type: cell-based, human; details: five-dose
[18] = system: Melanoma; experiment: NCI-60 screening (SRB), subpanel; assay type: cell-based
Source text: (§1) The experimental data allow the assessment of the cytostatic effect, indicated by growth inhibition values ranging between 0 and 100, as well as of the cytotoxic effect, indicated by negative values.
(§2) The mean GI50 (molar concentration of the compound that inhibits 50% net cell growth), TGI (molar concentration of the compound leading to the total inhibition), and LC50 (molar concentration of the compound leading to 50% net cell death (presented in negative logarithm)) values across each cell line are shown in Table 2.
(§3) The selectivity index (SI), calculated as the ratio between the full panel MG_MID60 (μM) of compounds 4, 6, and 9 by their respective subpanels MG_MID of the cell line (μM), was introduced as a quantification tool for the selectivity of each compound in terms of anticancer effect (Table 3).
(§4) Primary anticancer assays were performed according to the NCI protocol, as described elsewhere (see e.g., http://dtp.nci.nih.gov accessed on 1 November 2018). The compounds were added at a single concentration, and the cell cultures were incubated for 48 h. The end point determinations were made with a protein-binding dye, sulforhodamine B (SRB). […] The percentage of growth was evaluated spectrophotometrically versus controls not treated with test agents after 48 h exposure and using SRB protein assay to estimate cell viability or growth. Three antitumor activity dose-response parameters were calculated for each cell line. Furthermore, mean graph midpoints (MG_MID) were calculated for each of the parameters, giving an average activity parameter over all cell lines for the tested compound. For the MG_MID calculation, insensitive cell lines were included with the highest concentration tested.

[19] = system: Renal Cancer; experiment: NCI-60 screening (SRB), subpanel; assay type: cell-based
Source text: as §1, §2, §3, §4

[20] = system: Colon Cancer; experiment: NCI-60 screening (SRB), subpanel; assay type: cell-based
Source text: as §1, §2, §3, §4

[21] = system: NSC lung cancer; experiment: NCI-60 screening (SRB), subpanel; assay type: cell-based
Source text: as §1, §2, §3, §4

[22] = system: Prostate cancer; experiment: NCI-60 screening (SRB), subpanel; assay type: cell-based
Source text: as §1, §2, §3, §4

[23] = system: Ovarian cancer; experiment: NCI-60 screening (SRB), subpanel; assay type: cell-based
Source text: as §1, §2, §3, §4

[24] = system: Breast cancer; experiment: NCI-60 screening (SRB), subpanel; assay type: cell-based
Source text: as §1, §2, §3, §4

[25] = system: Leukemia; experiment: NCI-60 screening (SRB), subpanel; assay type: cell-based; details: Leukemia; MG_MID60/subpanel MG_MID
Source text: as §1, §2, §3, §4

[26] = Homo sapiens, read-out: LC50 (the source's name)

SMILES: CCN1CCN(C(=O)[C@]23CC[C@@H](C)[C@H](C)[C@H]2C2=CC[C@@H]4[C@@]5(C)CCC(=O)C(C)(C)[C@@H]5CC[C@@]4(C)[C@]2(C)CC3)CC1 [Compound 4, N-(3-oxo-ursan-12-en-28-oyl)-ethylpiperazine]
- GI50 ([1]; Homo sapiens): 1270 nM
- CC50 [1, 26]: 20300 nM
- TGI [1]: 4140 nM
- GI50 ([2]; Homo sapiens): 1570 nM
- CC50 [2, 26]: 16800 nM
- TGI [2]: 5430 nM
- GI50 ([3]; Homo sapiens, five-dose): 888 nM
- CC50 ([3]; Homo sapiens, five-dose, read-out: LC50 (the source's name)): 2890 nM
- Growth % ([3]; 1 dose 10 µM): −84.06%
- TGI ([3]; five-dose): 1600 nM
- GI50 ([4]; Homo sapiens): 994 nM
- CC50 [4, 26]: > 50000 nM
- TGI [4]: 2900 nM
- GI50 ([5]; Homo sapiens, MALME-3M, five-dose): 807 nM
- CC50 ([5]; Homo sapiens, MALME-3M, five-dose, read-out: LC50 (the source's name)): 8840 nM
- Growth % ([5]; MALME-3M (Melanoma), 1 dose 10 µM): −85.67%
- TGI ([5]; MALME-3M, five-dose): 1510 nM
- GI50 ([6]; Homo sapiens): 1380 nM
- LC50 ([6]; Homo sapiens): > 50000 nM
- TGI [6]: 3090 nM
- GI50 ([7]; Homo sapiens): 814 nM
- CC50 [7, 26]: 3560 nM
- TGI [7]: 1700 nM
- TGI [8]: 2960 nM
- GI50 ([8]; Homo sapiens): 946 nM
- CC50 [8, 26]: 11200 nM
- GI50 ([9]; Homo sapiens): 1050 nM
- CC50 [9, 26]: 5220 nM
- TGI [9]: 2300 nM
- GI50 ([10]; Homo sapiens): 1080 nM
- CC50 [10, 26]: 11600 nM
- TGI [10]: 2900 nM
- GI50 ([11]; Homo sapiens): 1100 nM
- CC50 [11, 26]: 30100 nM
- TGI [11]: 2890 nM
- GI50 ([12]; Homo sapiens): 922 nM
- CC50 [12, 26]: 3600 nM
- TGI [12]: 1820 nM
- GI50 ([13]; Homo sapiens): 1100 nM
- CC50 [13, 26]: 6520 nM
- TGI [13]: 2440 nM
- GI50 ([14]; Homo sapiens): 798 nM
- CC50 [14, 26]: 3090 nM
- TGI [14]: 1570 nM
- GI50 ([15]; Homo sapiens): 1670 nM
- CC50 [15, 26]: 18600 nM
- TGI [15]: 5620 nM
- GI50 ([16]; Homo sapiens, LOX IMVI, five-dose): 821 nM
- CC50 ([16]; Homo sapiens, LOX IMVI, five-dose, read-out: LC50 (the source's name)): 2800 nM
- TGI ([16]; LOX IMVI, five-dose): 1520 nM
- Growth % ([16]; LOXIMVI (Melanoma), 1 dose 10 µM): −85.17%
- GI50 ([17]; Homo sapiens): 985 nM
- CC50 [17, 26]: 4880 nM
- TGI [17]: 2190 nM
- GI50 ([18]; Homo sapiens, Melanoma subpanel, five-dose, read-out: GI50 MG_MID): 930 nM
- CC50 ([18]; Homo sapiens, Melanoma subpanel, five-dose, read-out: LC50 MG_MID): 4940 nM
- TGI MG_MID ([18]; Melanoma subpanel, five-dose): 1930 nM
- SI (TGI) ([18]; Melanoma, MG_MID60/subpanel MG_MID): 1.42
- GI50 ([19]; Homo sapiens, Renal cancer subpanel, five-dose, read-out: GI50 MG_MID): 950 nM
- LC50 (50% net cell kill) ([19]; Homo sapiens, Renal cancer subpanel, five-dose, read-out: LC50 MG_MID): 8380 nM
- SI (TGI) ([19]; Renal Cancer, MG_MID60/subpanel MG_MID): 1.08
- TGI MG_MID ([19]; Renal cancer subpanel, five-dose): 2530 nM
- TGI MG_MID ([20]; Colon Cancer subpanel, five-dose): 2030 nM
- SI (TGI) ([20]; Colon Cancer, MG_MID60/subpanel MG_MID): 1.35
- GI50 ([20]; Homo sapiens, Colon Cancer subpanel, five-dose, read-out: GI50 MG_MID): 940 nM
- CC50 ([20]; Homo sapiens, Colon Cancer subpanel, five-dose, read-out: LC50 MG_MID): 5920 nM
- GI50 ([21]; Homo sapiens, NSC lung cancer subpanel, five-dose, read-out: GI50 MG_MID): 1180 nM
- CC50 ([21]; Homo sapiens, NSC lung cancer subpanel, five-dose, read-out: LC50 MG_MID): 17000 nM
- TGI MG_MID ([21]; NSC lung cancer subpanel, five-dose): 3600 nM
- SI (TGI) ([21]; NSCL cancer, MG_MID60/subpanel MG_MID): 0.76
- GI50 ([22]; Homo sapiens, Prostate cancer subpanel, five-dose, read-out: GI50 MG_MID): 1270 nM
- CC50 ([22]; Homo sapiens, Prostate cancer subpanel, five-dose, read-out: LC50 MG_MID): 18400 nM
- TGI MG_MID ([22]; Prostate cancer subpanel, five-dose): 4400 nM
- SI (TGI) ([22]; Prostate cancer, MG_MID60/subpanel MG_MID): 0.62
- GI50 ([23]; Homo sapiens, Ovarian cancer subpanel, five-dose, read-out: GI50 MG_MID): 1190 nM
- CC50 ([23]; Homo sapiens, Ovarian cancer subpanel, five-dose, read-out: LC50 MG_MID): 16200 nM
- SI (TGI) ([23]; Ovarian Cancer, MG_MID60/subpanel MG_MID): 0.77
- TGI MG_MID ([23]; Ovarian cancer subpanel, five-dose): 3550 nM
- TGI MG_MID ([24]; Breast cancer subpanel, five-dose): 2330 nM
- SI (TGI) ([24]; Breast cancer, MG_MID60/subpanel MG_MID): 1.17
- GI50 ([24]; Homo sapiens, Breast cancer subpanel, five-dose, read-out: GI50 MG_MID): 970 nM
- CC50 ([24]; Homo sapiens, Breast cancer subpanel, five-dose, read-out: LC50 MG_MID): 16000 nM
- SI (TGI) [25]: 1.12

Source: paper PMC8536124 (International Journal of Molecular Sciences, 2021)
